Where two headings read alike, the source gives them in different places.
Key:
[1] = target: T1, human adrenergic receptor (ADR) β1 (Homo sapiens, UniProt P08588); experiment: ADRβ1 activation, Ca2+ influx (Fluo-8) in overexpressing chem-1 cells; assay type: cell-based; settings: for ADRβ1 Emax: % of maximal signal obtained by adrenaline, average (95% CI); for Emax: Chem-1, read-out: ADRβ1 Emax; for potency at ADRβ1, times less potent than adrenaline: relative to the endogenous agonist adrenaline
T1 construct: host or cells: rat chem-1 cells
T1 sequence (P08588 whole entry): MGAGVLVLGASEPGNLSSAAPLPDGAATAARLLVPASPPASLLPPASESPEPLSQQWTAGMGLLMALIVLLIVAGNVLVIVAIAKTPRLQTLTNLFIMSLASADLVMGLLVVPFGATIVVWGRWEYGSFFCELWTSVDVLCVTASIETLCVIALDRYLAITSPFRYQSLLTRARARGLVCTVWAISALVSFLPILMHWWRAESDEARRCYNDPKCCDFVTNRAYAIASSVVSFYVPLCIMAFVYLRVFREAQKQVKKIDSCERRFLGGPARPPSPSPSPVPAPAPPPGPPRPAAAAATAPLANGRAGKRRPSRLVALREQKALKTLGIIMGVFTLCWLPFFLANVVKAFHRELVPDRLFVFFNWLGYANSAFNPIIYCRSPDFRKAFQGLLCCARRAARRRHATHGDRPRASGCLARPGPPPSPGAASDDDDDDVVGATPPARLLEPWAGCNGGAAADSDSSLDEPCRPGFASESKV
Text: Cells overexpressing human ADRs α1A, α1B, α1D, α2A, α2B, β1 and β2 (Eurofins Discovery Services, St. Charles, MO, USA, product numbers: HTS087RTA, HTS158RTA, HTS216RTA, HTS096RTA, HTS157LRTA, HTS104RTA and HTS073RTA, respectively) were used to study the potency (EC50) and efficacy (Emax) of the selected compounds for these receptors by quantifying Ca^2+ influx upon receptor activation. ADRα1A, α1B, α1D, α2A, β1 and β2 were overexpressed in rat chem-1 cells. ADRα2B was overexpressed in HEK293 cells. The cells were seeded (10,000–50,000 cells/well) in a black 96-well plate (VWR International, Leuven, Belgium) and incubated at 37 °C and 5% CO2 for 24 h. After 24 h, the cells were washed with Hank’s balanced salt solution (HBSS) (Gibco, Paisley, UK) containing 0.35 g/L sodium bicarbonate and incubated with 5 µg/mL Fluo-8 AM in HBSS (pH 7.4) supplemented with 2.5 mM probenecid for 1 h. […] Peak tops of the obtained fluorescence response–time curves were corrected for baseline fluorescence and used to construct concentration–response relationships.
Concentration–response relationships for TAAR1 activation are presented as percentages of the maximal intracellular cAMP level induced by full the TAAR1 agonist phenethylamine and corrected for baseline cAMP accumulation. […] Experiments were run in duplicate in 7–9 independent experiments for ADR and were run in 3–5 independent experiments for TAAR1.

[2] = target: T2, human adrenergic receptor (ADR) α2A (Homo sapiens, UniProt P08913); experiment: ADRα2A activation, Ca2+ influx (Fluo-8) in overexpressing chem-1 cells; assay type: cell-based; settings: for EC50: Ca2+ response, chem-1 cells, average (95% confidence interval), 7–9 experiments; for potency at ADRα2A, times lower compared to adrenaline: relative to the endogenous agonist adrenaline
T2 construct: host or cells: rat chem-1 cells
T2 sequence (P08913 1-465): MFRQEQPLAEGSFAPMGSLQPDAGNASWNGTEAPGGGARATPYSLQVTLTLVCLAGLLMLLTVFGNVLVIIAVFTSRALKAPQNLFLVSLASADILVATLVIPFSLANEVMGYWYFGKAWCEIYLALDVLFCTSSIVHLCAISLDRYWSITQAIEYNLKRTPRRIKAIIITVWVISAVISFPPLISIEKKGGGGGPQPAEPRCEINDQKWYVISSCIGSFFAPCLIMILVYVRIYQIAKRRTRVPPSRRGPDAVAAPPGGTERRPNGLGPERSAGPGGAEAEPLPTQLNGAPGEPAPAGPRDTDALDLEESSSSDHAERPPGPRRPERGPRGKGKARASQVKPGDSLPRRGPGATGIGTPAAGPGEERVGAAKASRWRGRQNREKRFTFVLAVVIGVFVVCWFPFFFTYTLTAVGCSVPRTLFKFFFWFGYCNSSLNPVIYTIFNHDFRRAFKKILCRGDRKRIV

[3] = target: T3, human adrenergic receptor (ADR) α1D (Homo sapiens, UniProt P25100); experiment: ADRα1D activation, Ca2+ influx (Fluo-8) in overexpressing chem-1 cells; assay type: cell-based; settings: for ADRα1D Emax: % of maximal signal obtained by adrenaline, average (95% CI); for EC50: Ca2+ response, chem-1 cells, average (95% confidence interval), 7–9 experiments; for Emax: Chem-1
T3 construct: host or cells: rat chem-1 cells
T3 sequence (P25100 1-572): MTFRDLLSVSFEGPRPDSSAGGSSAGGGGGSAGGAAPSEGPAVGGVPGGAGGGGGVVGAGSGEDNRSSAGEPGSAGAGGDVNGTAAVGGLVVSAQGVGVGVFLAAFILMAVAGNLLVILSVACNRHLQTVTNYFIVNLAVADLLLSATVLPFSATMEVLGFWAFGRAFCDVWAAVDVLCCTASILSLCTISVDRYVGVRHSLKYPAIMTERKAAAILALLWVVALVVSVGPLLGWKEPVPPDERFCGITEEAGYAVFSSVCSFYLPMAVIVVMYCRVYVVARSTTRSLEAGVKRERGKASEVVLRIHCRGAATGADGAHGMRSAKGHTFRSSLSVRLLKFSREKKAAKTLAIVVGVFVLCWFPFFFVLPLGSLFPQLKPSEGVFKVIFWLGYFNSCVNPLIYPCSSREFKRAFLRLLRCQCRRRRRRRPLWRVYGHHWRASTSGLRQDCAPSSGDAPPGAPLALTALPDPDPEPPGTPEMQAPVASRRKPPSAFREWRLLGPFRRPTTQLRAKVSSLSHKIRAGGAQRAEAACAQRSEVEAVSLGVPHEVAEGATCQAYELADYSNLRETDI

[4] = set-up: method as in earlier work; settings: humans; ref 47 (Feng et al. 2012); cited from earlier work
[5] = set-up: method as in PMID 33227193, PMID 31984737; settings: humans, n = 3, cited from earlier work

Compound	EC50 [1]	ADRβ1 Emax [1]	EC50 [2]	ADRα1D Emax [3]	EC50 [3]	Emax [3]	Emax [1]	potency at ADRβ1, times less potent than adrenaline [1]	maximal plasma concentration [4]	Human plasma level ([5]; 5.5 mg oral dose)	Human plasma level ([5]; 100 mg oral dose)	ADRα2A Emax ([2]; % of maximal signal obtained by adrenaline, average (95% CI))	potency at ADRα2A, times lower compared to adrenaline [2]	Emax ([2]; Chem-1, % of maximal signal obtained by adrenaline, average (95% CI))
CC(C)CC(C)N (stereo not drawn)	> 300 µM	-	> 300 µM	-	> 300 µM									
CC(C)CCCC(C)N (stereo not drawn)	> 300 µM	-	> 300 µM	-	> 300 µM									
CCC(C)CC(C)N (stereo not drawn) [1,3-Dimethylamylamine, 1,3-dimethylamylamine]	> 300 µM	-	> 300 µM	-	> 300 µM									
CN(C)CCO [Dimethylaminoethanol, dimethylaminoethanol]	> 300 µM	-	> 300 µM	-	> 300 µM									
CN(C)CCc1ccccc1 [Dimethylphenethylamine, N,N-dimethylphenethylamine]	> 300 µM	-	> 300 µM		8.4 µM	7.9%								
CNCC(O)c1ccccc1 (stereo not drawn) [Halostachine, halostachine]	> 300 µM	-	> 300 µM		2.1 µM	82%								
Oc1ccc(CC2NCCc3cc(O)c(O)cc32)cc1 (stereo not drawn) [Higenamine, higenamine]	0.034 µM		> 300 µM	-	> 300 µM		105%	~3 times	8.4 nM					
CN(C)CCc1ccc(O)cc1 [Hordenine, hordenine]	> 300 µM	-	690 µM		34 µM	23%				15 nM	2.7 nM	12%	> 12000 times	
CC(C)NCC(O)c1ccc(O)cc1 (stereo not drawn) [Isopropyloctopamine, isopropyloctopamine]			> 300 µM	-	> 300 µM									
CNC(C)C(O)c1ccc(O)cc1 (stereo not drawn) [Methylsynephrine]	25 µM		> 300 µM	-	> 300 µM		75%	approximately 2500 times						
NCCc1ccccc1 [Phenethylamine, phenethylamine]	> 300 µM	-	> 300 µM	-	> 300 µM									
NCCc1ccc(O)cc1 [Tyramine, tyramine]			> 300 µM	-	> 300 µM									
NCC(O)c1ccc(O)cc1 (stereo not drawn) [p-Octopamine, p-octopamine]			> 300 µM		1.2 µM	100%								
CNCC(O)c1ccc(O)cc1 (stereo not drawn) [p-Synephrine, p-synephrine]			100 µM			80%							> 12000 times	89%
CC(CN)c1ccccc1 (stereo not drawn) [β-Methylphenethyl-amine, beta-methylphenethylamine]	> 300 µM	-	> 300 µM	-	> 300 µM									
